What all share (assay type): biochemical
Test [1] concerns the target Lck (Homo sapiens, UniProt P06239). As to the kind of experiment: Lck kinase activity, TR-FRET assay. The following applies: read-out: LCK (IC50). In short, it runs like this: (§1)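 Enzyme (Btk 0.5 nM; Lck 6 nM) reacted 1 h with inhibitor, ATP at Km and biotin-peptide substrate in pH 7.4 buffer, 10% DMSO. Phosphopeptide detected by Eu-p-Tyr100 antibody plus streptavidin-APC (665/615 nm). IC50 calculated from fitted Ki(app) via ATP/Km correction plus half total enzyme.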

Test [2] has as its target T1, JAK3 (Homo sapiens, UniProt P52333).
T1 sequence (P52333 1-1124): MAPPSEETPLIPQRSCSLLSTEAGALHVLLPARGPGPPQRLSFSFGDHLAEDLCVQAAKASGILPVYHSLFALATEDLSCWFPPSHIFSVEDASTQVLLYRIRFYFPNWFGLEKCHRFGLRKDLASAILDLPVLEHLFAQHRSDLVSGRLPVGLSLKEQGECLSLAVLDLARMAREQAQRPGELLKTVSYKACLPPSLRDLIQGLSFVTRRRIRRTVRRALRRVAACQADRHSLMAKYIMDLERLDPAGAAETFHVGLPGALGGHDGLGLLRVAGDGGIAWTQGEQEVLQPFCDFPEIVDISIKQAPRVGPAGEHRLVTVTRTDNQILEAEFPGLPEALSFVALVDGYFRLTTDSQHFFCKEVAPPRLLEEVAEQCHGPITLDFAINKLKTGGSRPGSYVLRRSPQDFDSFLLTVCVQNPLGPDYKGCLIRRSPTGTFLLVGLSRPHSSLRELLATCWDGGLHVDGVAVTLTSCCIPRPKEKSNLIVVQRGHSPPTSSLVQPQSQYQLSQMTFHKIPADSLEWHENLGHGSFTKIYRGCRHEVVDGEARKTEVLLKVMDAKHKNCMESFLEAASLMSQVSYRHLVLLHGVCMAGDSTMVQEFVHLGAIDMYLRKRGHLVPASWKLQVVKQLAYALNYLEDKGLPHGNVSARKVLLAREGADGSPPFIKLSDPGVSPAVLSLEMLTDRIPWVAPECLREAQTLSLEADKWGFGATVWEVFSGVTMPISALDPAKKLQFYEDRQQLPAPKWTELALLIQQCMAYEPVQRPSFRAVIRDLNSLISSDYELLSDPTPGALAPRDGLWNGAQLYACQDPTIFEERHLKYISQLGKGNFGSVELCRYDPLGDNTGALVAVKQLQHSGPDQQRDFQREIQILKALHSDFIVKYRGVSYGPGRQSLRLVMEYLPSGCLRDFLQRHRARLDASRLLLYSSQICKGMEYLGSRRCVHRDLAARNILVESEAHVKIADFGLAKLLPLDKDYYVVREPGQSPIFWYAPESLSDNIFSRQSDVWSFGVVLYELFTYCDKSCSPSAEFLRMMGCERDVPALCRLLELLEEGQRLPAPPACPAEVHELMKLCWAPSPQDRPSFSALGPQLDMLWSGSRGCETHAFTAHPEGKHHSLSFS
As to the kind of experiment: Inhibition of a panel of kinases, in vitro HotSpot kinase assay: JAK3. The protocol:
(§2) The degree of inhibition of a panel of kinases is determined using the in vitro HotSpot kinase assay (purified enzymes, ^33P-ATP, an appropriate substrate and 1 uM ATP).

In test [3] the target is EGFR (Homo sapiens, UniProt P00533). As to the kind of experiment: Inhibition of a panel of kinases, in vitro HotSpot kinase assay: EGFR. The protocol:
as §2

In test [4] the target is Btk (Homo sapiens, UniProt Q06187). Put plainly: Btk kinase activity, TR-FRET assay. The following applies: read-out: Btk (IC50). A digest of the protocol: as §1

Where only a bound is given, the exact number is not on record here.

Chain of EGFR (P00533 25-1210): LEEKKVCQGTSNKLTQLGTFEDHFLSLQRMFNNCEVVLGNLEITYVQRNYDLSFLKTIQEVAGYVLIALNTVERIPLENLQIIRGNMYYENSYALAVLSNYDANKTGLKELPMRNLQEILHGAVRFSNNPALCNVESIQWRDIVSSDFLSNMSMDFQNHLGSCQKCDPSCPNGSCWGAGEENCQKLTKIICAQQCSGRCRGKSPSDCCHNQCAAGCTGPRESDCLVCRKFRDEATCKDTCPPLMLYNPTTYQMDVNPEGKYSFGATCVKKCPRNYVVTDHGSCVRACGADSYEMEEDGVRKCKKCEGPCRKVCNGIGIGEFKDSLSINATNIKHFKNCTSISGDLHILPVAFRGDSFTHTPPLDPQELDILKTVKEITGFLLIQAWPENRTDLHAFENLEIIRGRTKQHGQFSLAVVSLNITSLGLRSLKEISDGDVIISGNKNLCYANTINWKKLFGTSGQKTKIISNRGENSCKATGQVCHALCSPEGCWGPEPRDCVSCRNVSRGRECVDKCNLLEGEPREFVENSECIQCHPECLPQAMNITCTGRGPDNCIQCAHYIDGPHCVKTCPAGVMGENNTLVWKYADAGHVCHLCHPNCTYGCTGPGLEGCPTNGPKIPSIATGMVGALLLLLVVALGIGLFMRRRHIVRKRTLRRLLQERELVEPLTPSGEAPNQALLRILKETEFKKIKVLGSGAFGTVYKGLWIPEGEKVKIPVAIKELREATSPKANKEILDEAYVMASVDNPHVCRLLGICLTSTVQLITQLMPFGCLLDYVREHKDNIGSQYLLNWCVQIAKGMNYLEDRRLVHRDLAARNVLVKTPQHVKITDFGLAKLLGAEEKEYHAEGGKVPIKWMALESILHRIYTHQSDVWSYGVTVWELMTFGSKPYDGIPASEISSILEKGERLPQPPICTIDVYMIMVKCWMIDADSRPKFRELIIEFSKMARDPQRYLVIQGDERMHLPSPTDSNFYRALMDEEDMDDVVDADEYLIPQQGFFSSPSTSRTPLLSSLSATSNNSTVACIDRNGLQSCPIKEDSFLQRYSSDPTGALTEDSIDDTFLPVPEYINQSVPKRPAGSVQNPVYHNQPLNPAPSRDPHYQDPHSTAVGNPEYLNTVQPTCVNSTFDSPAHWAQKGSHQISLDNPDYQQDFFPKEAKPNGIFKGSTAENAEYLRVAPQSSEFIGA
Chain of Btk (Q06187 whole entry): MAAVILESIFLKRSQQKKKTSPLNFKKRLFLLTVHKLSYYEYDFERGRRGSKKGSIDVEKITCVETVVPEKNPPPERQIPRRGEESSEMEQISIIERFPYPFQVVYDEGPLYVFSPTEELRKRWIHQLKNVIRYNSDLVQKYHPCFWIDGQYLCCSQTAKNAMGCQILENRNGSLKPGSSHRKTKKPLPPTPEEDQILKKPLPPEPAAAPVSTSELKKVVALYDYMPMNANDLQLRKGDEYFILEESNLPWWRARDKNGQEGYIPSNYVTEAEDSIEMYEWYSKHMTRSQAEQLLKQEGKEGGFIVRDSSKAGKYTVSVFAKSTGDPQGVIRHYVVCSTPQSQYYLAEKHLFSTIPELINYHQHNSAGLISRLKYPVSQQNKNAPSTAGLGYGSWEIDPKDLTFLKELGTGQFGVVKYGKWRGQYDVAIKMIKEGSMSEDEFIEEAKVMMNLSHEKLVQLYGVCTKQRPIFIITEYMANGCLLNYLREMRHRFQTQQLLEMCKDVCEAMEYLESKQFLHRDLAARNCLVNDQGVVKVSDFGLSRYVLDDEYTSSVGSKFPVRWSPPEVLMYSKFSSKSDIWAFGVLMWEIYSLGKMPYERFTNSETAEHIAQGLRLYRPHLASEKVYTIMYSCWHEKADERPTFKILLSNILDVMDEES
Chain of Lck (P06239 whole entry, species assumed): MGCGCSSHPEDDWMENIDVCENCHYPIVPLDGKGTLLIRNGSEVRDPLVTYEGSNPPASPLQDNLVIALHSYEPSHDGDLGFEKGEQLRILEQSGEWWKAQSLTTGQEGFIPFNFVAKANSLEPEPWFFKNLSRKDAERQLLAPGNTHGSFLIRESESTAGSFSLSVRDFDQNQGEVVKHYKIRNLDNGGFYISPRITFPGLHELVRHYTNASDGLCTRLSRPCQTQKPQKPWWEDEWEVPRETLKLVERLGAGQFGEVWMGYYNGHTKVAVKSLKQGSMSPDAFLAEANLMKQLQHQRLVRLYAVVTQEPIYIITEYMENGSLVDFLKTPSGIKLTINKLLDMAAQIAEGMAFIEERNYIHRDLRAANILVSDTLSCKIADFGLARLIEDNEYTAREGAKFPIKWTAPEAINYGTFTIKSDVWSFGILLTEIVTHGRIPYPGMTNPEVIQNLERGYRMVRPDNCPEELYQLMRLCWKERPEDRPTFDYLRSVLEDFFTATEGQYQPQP

As usually defined, the IC50 is the concentration at which inhibition is half-maximal. In the case of `Cc1cc(NC(=O)c2cccc(Nc3ccnc4[nH]nc(N[C@@H]5CCCN(C(=O)N6CCOCC6)C5)c34)c2)ccc1C(C)C` [compound 133, N-[3-methyl-4-(propan-2-yl)phenyl]-3-[(3-{[(3R)-1-(morpholine-4-carbonyl)piperidin-3-yl]amino}-1H-pyrazolo[3,4-b]pyridin-4-yl)amino]benzamide], the IC50 in test [1] was 1000 to 10000 nM; in test [2], over 10000 nM; in test [3], over 10000 nM; in test [4], 100 to 1000 nM.

Regarding `C=CC(=O)N1CCC[C@@H](Nc2n[nH]c3nccc(Oc4cccc(C(=O)Nc5cc(C(F)(F)F)ccn5)c4)c23)C1` [compound 191], the IC50 in test [1] was 100 to 1000 nM; in test [2] it was under 100 nM; in test [3] it was under 100 nM; in test [4], under 100 nM.

With `CCNC(=O)N[C@H]1CCCN(c2n[nH]c3nccc(Oc4ccc(C(=O)Nc5cc(C(F)(F)F)ccn5)cc4)c23)C1` [compound 234, 4-({3-[(3S)-3-[(ethylcarbamoyl)amino]piperidin-1-yl]-1H-pyrazolo[3,4-b]pyridin-4-yl}oxy)-N-[4-(trifluoromethyl)pyridin-2-yl]benzamide], the IC50 in test [1] was over 10000 nM; in test [2], over 10000 nM; in test [3], over 10000 nM; in test [4], 100 to 1000 nM.

In the case of `CC#CC(=O)N1CCC[C@@H](Nc2n[nH]c3nccc(Oc4ccc(C(=O)Nc5nc6ccccc6s5)cc4)c23)C1` [compound 183], the IC50 in test [1] is 100 to 1000 nM; in test [2], 100 to 1000 nM; in test [3], over 10000 nM; in test [4], under 100 nM.

Turning to `C=CC(=O)N1CCC[C@@H](Nc2n[nH]c3nccc(Oc4ccc(-c5nc6ccccc6o5)cc4)c23)C1` [compound 194, 1-[(3R)-3-({4-[4-(1,3-benzoxazol-2-yl)phenoxy]-1H-pyrazolo[3,4-b]pyridin-3-yl}amino)piperidin-1-yl]prop-2-en-1-one], the IC50 in test [1] is 1000 to 10000 nM; in test [2], 100 to 1000 nM; in test [3], 1000 to 10000 nM; in test [4] it was under 100 nM.

For the molecule `CC1(C(=O)N2CCC[C@@H](Nc3n[nH]c4nccc(Oc5ccc(C(=O)Nc6nc7ccccc7s6)cc5)c34)C2)COC1` [compound 226, N-(1,3-benzothiazol-2-yl)-4-[(3-{[(3R)-1-(3-methyloxetane-3-carbonyl)piperidin-3-yl]amino}-1H-pyrazolo[3,4-b]pyridin-4-yl)oxy]benzamide], the IC50 was 100 to 1000 nM in test [1], 1000 to 10000 nM in test [2], over 10000 nM in test [3] and under 100 nM in test [4].

For `CCC(=O)N1CCC[C@@H](Nc2n[nH]c3nccc(Oc4ccc(C(=O)Nc5cc(C(F)(F)F)ccn5)cc4)c23)C1` [compound 225, 4-[(3-{[(3R)-1-propanoylpiperidin-3-yl]amino}-1H-pyrazolo[3,4-b]pyridin-4-yl)oxy]-N-[4-(trifluoromethyl)pyridin-2-yl]benzamide], the IC50 in test [1] was 100 to 1000 nM; in test [2] it was over 10000 nM; in test [3], 100 to 1000 nM; in test [4], under 100 nM.

On to `C=CC(=O)N1CCC[C@@H](Nc2n[nH]c3nccc(Oc4ccc(C(=O)Nc5cc(C(F)(F)F)ccn5)cc4)c23)C1` [compound 203, 4-[(3-{[(3R)-1-(prop-2-enoyl)piperidin-3-yl]amino}-1H-pyrazoo[3,4-b]pyridin-4-yl)oxy]-N-[4-(trifluoromethyl)pyridin-2-yl]benzamide], for which the IC50 in test [1] is 100 to 1000 nM; in test [2], 100 to 1000 nM; in test [3], under 100 nM; in test [4], under 100 nM.

In the case of `CCOP(=O)(CC(=O)N1CCC[C@@H](Nc2n[nH]c3nccc(Oc4ccc(C(=O)Nc5cc(C)ccn5)cc4)c23)C1)OCC` [compound 272, (R)-diethyl 2-(3-(4-(4-(4-methylpyridin-2-ylcarbamoyl)phenoxy)-1H-pyrazolo[3,4-b]pyridin-3-ylamino)piperidin-1-yl)-2-oxoethylphosphonate], the IC50 in test [1] is 100 to 1000 nM; in test [2], over 10000 nM; in test [3], over 10000 nM; in test [4], under 100 nM.

In the case of `Cc1ccnc(NC(=O)c2ccc(Oc3ccnc4[nH]nc(NC5CCN(C(=O)C6(C#N)CC6)CC5)c34)cc2)c1` [compound 277, 4-(3-(1-(1-cyanocyclopropanecarbonyl)piperidin-4-ylamino)-1H-pyrazolo[3,4-b]pyridin-4-yloxy)-N-(4-methylpyridin-2-yl)benzamide], the IC50 in test [1] is 1000 to 10000 nM; in test [2] it was over 10000 nM; in test [3] it was 1000 to 10000 nM; in test [4], 100 to 1000 nM.

Consider `CC#CC(=O)N1CCC[C@@H](Nc2n[nH]c3nccc(Oc4ccc(C(=O)Nc5cc(C(F)(F)F)ccn5)cc4)c23)C1` [compound 205, 4-[(3-{[(3R)-1-(but-2-ynoyl)piperidin-3-yl]amino}-1H-pyrazolo[3,4-b]pyridin-4-yl)oxy]-N-[4-(trifluoromethyl)pyridin-2-yl]benzamide], for which the IC50 in test [1] was 100 to 1000 nM; in test [2], over 10000 nM; in test [3], 1000 to 10000 nM; in test [4], under 100 nM.

Take `Cc1cc(NC(=O)c2cccc(Oc3ccnc4[nH]nc(N[C@H]5CCN(C(=O)C6CC6)C5)c34)c2)ccc1C(C)C` [compound 125, 3-[(3-{[(3S)-1-cyclopropanecarbonylpyrrolidin-3-yl]amino}-1H-pyrazolo[3,4-b]pyridin-4-yl)oxy]-N-[3-methyl-4-(propan-2-yl)phenyl]benzamide]: the IC50 in test [1] is under 100 nM; in test [2], 1000 to 10000 nM; in test [3], over 10000 nM; in test [4] it was 100 to 1000 nM.

Consider `Cc1cc(NC(=O)c2ccc(Oc3ccnc4[nH]nc(N[C@@H]5CCCN(C(=O)/C=C/CN(C)C6CC6)C5)c34)cc2)nn1C` [compound 165], for which the IC50 is over 10000 nM in test [1], over 10000 nM in test [2], over 10000 nM in test [3] and 100 to 1000 nM in test [4].

Take `C=CC(=O)N1CCC[C@@H](Nc2n[nH]c3nccc(Oc4ccc(C(=O)Nc5nc(C)cs5)cc4)c23)C1` [compound 143]: the IC50 was 1000 to 10000 nM in test [1], under 100 nM in test [2], 1000 to 10000 nM in test [3] and under 100 nM in test [4].

As to `Cc1ccnc(NC(=O)c2ccc(Oc3ccnc4[nH]nc(NC5CCN(C#N)CC5)c34)cc2)c1` [compound 278, 4-(3-(1-cyanopiperidin-4-ylamino)-1H-pyrazolo[3,4-b]pyridin-4-yloxy)-N-(4-methylpyridin-2-yl)benzamide], the IC50 is 100 to 1000 nM in test [1], over 10000 nM in test [2], 1000 to 10000 nM in test [3] and under 100 nM in test [4].

Consider `Cc1ccnc(NC(=O)c2ccc(Oc3ccnc4[nH]nc(N[C@@H]5CCCN(C(=O)[C@@H]6CCCO6)C5)c34)cc2)c1` [compound 117, N-(4-methylpyridin-2-yl)-4-[(3-{[(3R)-1-[(2S)-oxolane-2-carbonyl]piperidin-3-yl]amino}-1H-pyrazolo[3,4-b]pyridin-4-yl)oxy]benzamide], for which the IC50 in test [1] was over 10000 nM; in test [2] it was 1000 to 10000 nM; in test [3], over 10000 nM; in test [4], under 100 nM.

On to `C=CC(=O)N1CCC[C@@H](Nc2n[nH]c3nccc(Oc4ccc(-c5nc6ccccc6s5)cc4)c23)C1` [compound 192], for which the IC50 in test [1] is 100 to 1000 nM; in test [2] it was 100 to 1000 nM; in test [3], 100 to 1000 nM; in test [4], under 100 nM.

For the molecule `CC1(C(=O)N2CCC[C@@H](Nc3n[nH]c4nccc(Oc5ccc(C(=O)Nc6ccccn6)cc5)c34)C2)COC1` [compound 111, 4-[(3-{[(3R)-1-(3-methyloxetane-3-carbonyl)piperidin-3-yl]amino}-1H-pyrazolo[3,4-b]pyridin-4-yl)oxy]-N-(pyridin-2-yl)benzamide], the IC50 in test [1] was 1000 to 10000 nM; in test [2] it was over 10000 nM; in test [3], over 10000 nM; in test [4] it was under 100 nM.
